A short description of the data set: Effect of buffer concentration on osmolality. The class given is physicochemical. How it is done: The effect of buffer concentration on osmolality was measured for HEPES and potassium phosphate buffer systems and plotted in FIG. 8A. With HEPES, a higher buffer concentration can be achieved with a lower osmolality (slope 1.37 mOsmol/Kg per mMoles/L HEPES), as compared to phosphate buffers (slope 2.21 mOsmol/Kg per mMoles/L phosphate).

As to `O=S(=O)(O)CCN1CCN(CCO)CC1` [HEPES, 4-(2-hydroxyethyl)-1-piperazineethanesulfonic acid], the “slope of osmolality against buffer concentration” value is 1.37 mOsmol/Kg per mMoles/L. Next, phosphate: 2.21 mOsmol/Kg per mMoles/L.
